Results reported in ChEMBL document CHEMBL2034926, “Design, synthesis, and biological action of 20R-hydroxyvitamin D3” (J Med Chem, 2012).
Active and inactive are the calls of the source. The calls are words filed in the database; no cut-off is given here.

How the values were obtained:
HaCaT = test: Inhibition of colony formation of human HaCaT cells; assay type: functional, cell-based
[1] = Antiproliferative activity against NHEK cells incubated for 24 hrs by [3H]thymidine incorporation assay; assay type: functional, cell-based; conditions: Homo sapiens
HEK293 = test: Stimulation of cell proliferation of NHEK cells at 0.1 nM incubated for 24 hrs by [3H]thymidine incorporation assay; assay type: functional, cell-based; conditions: Homo sapiens
[2] = molecular target: T1, CYP11A1 (cholesterol side-chain cleavage enzyme, mitochondrial) (Bos taurus, UniProt P00189); test: Drug metabolism assessed as bovine CYP11A1-mediated compound metabolism after 2 mins incubation using compound loaded phospholipid vesicle by reverse phase HPLC; assay type: ADME; conditions: cattle, bovine CYP11A1 with compound-loaded phospholipid vesicles; read-out: Drug metabolism
T1 sequence (P00189 whole entry): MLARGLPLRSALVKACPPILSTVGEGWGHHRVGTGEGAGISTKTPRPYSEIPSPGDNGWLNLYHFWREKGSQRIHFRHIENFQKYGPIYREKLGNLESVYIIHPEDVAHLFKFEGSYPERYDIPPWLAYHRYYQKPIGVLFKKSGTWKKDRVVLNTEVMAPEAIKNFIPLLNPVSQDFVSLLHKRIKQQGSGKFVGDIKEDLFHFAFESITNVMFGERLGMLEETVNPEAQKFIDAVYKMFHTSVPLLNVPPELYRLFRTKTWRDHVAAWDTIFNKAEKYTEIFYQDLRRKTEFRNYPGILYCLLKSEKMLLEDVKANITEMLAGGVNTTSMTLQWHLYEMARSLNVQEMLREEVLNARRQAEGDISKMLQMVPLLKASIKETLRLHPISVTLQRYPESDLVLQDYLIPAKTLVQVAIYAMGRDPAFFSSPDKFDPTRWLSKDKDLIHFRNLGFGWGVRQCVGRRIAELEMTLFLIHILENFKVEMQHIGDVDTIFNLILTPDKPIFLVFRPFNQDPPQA

[3] = Antiproliferative activity against NHEK cells assessed as cell proliferation incubated for 24 hrs by [3H]thymidine incorporation assay relative to untreated control

| SMILES | inhibition (HaCaT) | EC50 [1] | Activity (HEK293) | metabolised at 2 min [2] | level, % of control [3] |
| --- | --- | --- | --- | --- | --- |
| C=C1CC[C@H](O)C/C1=C/C=C1\CCC[C@]2(C)[C@@H]([C@H](C)CCCC(C)(C)O)CC[C@@H]12 | inactive | – | – | – | – |
| C=C1/C(=C\C=C2/CCC[C@]3(C)[C@@H]([C@H](C)CCCC(C)(C)O)CC[C@@H]23)C[C@@H](O)C[C@@H]1O | Active | – | – | – | – |
| C=C1CC[C@H](O)C/C1=C/C=C1\CCC[C@@]2(C)[C@H]1CC[C@@H]2[C@](C)(O)CCCC(C)C | – | 4.09 nM | Active | 58% | <50% |
| C=C1CC[C@H](O)C/C1=C/C=C1\CCC[C@@]2(C)[C@H]1CC[C@@H]2[C@@](C)(O)CCCC(C)C | Active | 0.728 nM | – | 13% | <50% |
